Measurements published in US20010044447A1 (priority 1999, published 2001).

Legend:
[1] = system: motoneurons (trophic activity produced by spinal astrocytes); assay type: cell-based, Wistar rats; conditions: each product 0.1 μM; astrocyte monolayers exposed 24 hours, conditioned medium taken up 24 hours later; percentage of the number of motoneurons in cultures maintained with BDNF; vehicle alone 44 ± 1.41
Procedure: The motoneurons are plated, at a density of 2500 cells per 35 mm plate, on culture plates previously coated with laminin/ornithine according to the method of A. G. ESTEVEZ et al., J. Neurosci., 18 (3), 923-931 (1998). The cultures are then maintained in L15 medium (GIBCO BRL) containing sodium bicarbonate (22 mM), conalbumin (0.1 mg/ml), putrescine (0.1 mM), insulin (5 μg/ml), sodium selenite (31 nM), glucose (20 mM), progesterone (21 nM), penicillin (100 IU/ml) and streptomycin (100 μg/ml).
The motoneurons thus obtained are composed of large (25-30 μM) and homogeneous neurones with long branched neurites. More than 70% of the cells are immunoreactive for the p75 neurotrophin receptor and the markers Islet 1/2 for the spinal motoneurons. About 70% of the motoneurons die by apoptosis 24 hours after the plating if the culture is carried out in the absence of a trophic factor. […]
The monolayers of astrocytes show a purity of more than 98% determined by immunoreactivity for the glial fibrillary acidic protein (GFAP). […]
The number of motoneurons is evaluated by counting the labelled cells in a surface area of 0.4-1 cm^2 under a microscope with a 200 times magnification.

[2] = system: motoneurons (trophic activity produced by spinal astrocytes); conditions: H. PELUFFO et al., Neuroscience letters, 228, 207-211 (1997); cited from earlier work

Structure (SMILES) | Motoneuronal survival in % [1] | Production, by the astrocytes, of trophic activity for the motoneurons [2]
CO[C@]12C[C@@H](CO)CN(C)[C@@H]1Cc1cn(C)c3cccc2c13 [lumilysergol, 1,6-dimethyl-8β-hydroxymethyl-10α-methoxyergoline] | 57.4 ± 3.53% | –
CO[C@]12C[C@@H](COC(=O)c3cncc(Br)c3)CN(C)[C@@H]1Cc1cn(C)c3cccc2c13 [nicergoline, (8 p)-10-methoxy-1,6-dimethylergoline-8-methanol-5-bromonicotinate] | 44.5 ± 3.53% | –
Nc1nc2ccc(OC(F)(F)F)cc2s1 [riluzole] | – | stimulated
